From patent US11304927B2, “Bioactive extract, fraction of Cassia occidentalis and formulation thereof for bone regeneration” (COUNCIL OF SCIENTIFIC AND INDUSTRIAL RESEARCH, priority 2018, dated 2022) come the findings set out here.

For series [1], the system named is osteopenic mice. The series can be described thus: Osteopenic (OVX) mice model. The class given is in vivo, balb/c mice. Here is the method:
50 adult female balb/c mice (20±3 g, 10-12 months) underwent either sham surgery or ovariectomy (OVX). 6 weeks post-surgery, mice were scanned using μCT to ensure development of osteopenia. Treatments of 219/[…] (5 mg/kg), 219/[…] (1 mg/kg and 5 mg/kg), PTH (40 μg/kg) and vehicle (water) were given to OVX mice with osteopenia for another 6 weeks, and vehicle treatment was given to sham operated mice for the same duration (n=10/group). After 6 weeks all mice were sacrificed and bones were collected for further experiment. A high-resolution X-ray micro-computed tomographic (μCT) for two-dimensional (2D) and three-dimensional (3D) assessment of bones (excised bones) were carried out using a Sky Scan 1076 μCT scanner (SkyScan, Ltd, Kartuizersweg, Kontich, Belgium). Briefly, after scanning bone samples at a nominal resolution (pixels) of 9 μm, cross-sectional reconstruction was made using SkyScanNrecon software based on a modified Feldkamp algorithm. To analyze trabecular bone, region of interest was drawn on a total of 100 slices in the region of secondary spongiosa situated 1.5 mm away from the distal border of growth plate (GP) excluding primary spongiosa and cortical bone. Quantification was done by employing Batman software encumbered with trabecular (3D) and cortical (2D) bone programs. Using μCT scans, trabecular bone mineral density (BMD) of femurs was determined from the volume of interest made for cortical and trabecular region, respectively. […] Bone mechanical strength was examined by three-point bending of femur diaphysis with bone strength tester TK […] (Muromachi Kikai Co. Ltd, Tokyo, Japan).

The subject of series [2] is Rat calvarial osteoblasts (RCO). The series can be described thus: Alkaline phosphatase (ALP) assay, osteoblast differentiation. The class given is cell-based. As to conditions: 48 h, ALP activity. The procedure: Calvaria from ten to twelve 1-2 day old rat pups were harvested, cleaned, and subjected to five sequential enzymatic digestions (0.1% diaspase and 0.1% collagenase I) of 10-15 min each. Cells from second to fifth digestion were collected, centrifuged, re-suspended and cultured in α-MEM containing 10% fetal bovine serum (FBS) and 1% penicillin/streptomycin (complete growth medium).
For ALP assay, RCO were trypsinized at 80% confluence and 2×10^3 cells/well were seeded onto 24-well plates. Cells were treated with different compounds isolated from extract & vehicle for 48 h in α-MEM supplemented with 10 mM β-glycerophosphate, […] and 1% penicillin/streptomycin (osteoblast differentiation medium).
At the end of the experiment, cells were washed with PBS, freeze fractured by placing the plates at −70° C. for 15 minutes followed by bringing to room temperature. ALP activity was measured by adding 100 µl p-nitrophenylphosphate buffer (2 mg/ml pNPP and 0.25 mM MgCl2 in 1 M diethanolamine). The absorption was measured at 405 nm with a microplate reader.

The subject of series [3] is Runx2 mRNA. The series can be described thus: qPCR osteogenic gene expression in rat calvarial osteoblast. The class given is cell-based. The following applies: mRNA by qPCR, 48 h, active concentration of the compounds. On the technique in general: Quantitative PCR measures a nucleic acid by following its amplification.
For series [4] the following is noted: rat, in vivo, 250 mg/kg. The procedure: LC-MS/MS-API 4000 (Q-TRAP) triple quadrupole (AB-SCIEX, Toronto, Canada). The mass spectrometer was operated using an electrospray atmospheric pressure ionization source in positive ion mode.
a) Fingerprinting of 219/C002 Extract
Primary stock: 1 mg/mL in DMSO
Secondary stock: 50 ng/mL in Methanol
Continuous injection at 10 μL/min from secondary stock.
b) Fingerprinting of Blank Rat Plasma:
Blood was collected from overnight fasted rats and plasma was seperated. Plasma was precipitated with methanol (1:5 v/v), vortexed and centrifuged. The supernatant was collected and diluted with methanol (1:10 v/v). Continuous injection at 10 μL/min
c) Fingerprinting of 250 mg/kg (Oral) 219/C002 Treated Rat Plasma
Overnight fasted rats were administered 250 mg/kg 219/C002 extract suspension orally. Blood was collected after 45 min and plasma was separated. Plasma was precipitated with methanol (1:5 v/v), vortexed and centrifuged. The supernatant was collected and diluted with methanol (1:10 v/v). Continuous injection into the column at 10 μL/min.
The mass spectrometer [LC-MS/MS-API 4000 (Q-TRAP) triple quadrupole (AB-SCIEX, Toronto, Canada)] was used for the assay. Overnight fasted rats were administered 250 mg/kg extract suspension orally. Blood was collected after 45 min and plasma was separated. Plasma was precipitated with methanol, vortexed and centrifuged. The supernatant was collected and diluted with methanol. Continuous injection at 10 μL/min was done for extract, blank plasma and extract treated plasma.

Series [5] relates to type 1 collagen (col1) mRNA. The series can be described thus: qPCR osteogenic gene expression in rat calvarial osteoblast. The class given is cell-based. As to conditions: mRNA by qPCR, 48 h, active concentration of the compounds.
Series [6] deals with BMP2 mRNA. The description is as above. The class given is cell-based. The following applies: mRNA by qPCR, 48 h, active concentration of the compounds.
Series [7] deals with MP treated animals (adult male SD rats). The series can be described thus: MP induced secondary osteoporosis model. The class given is in vivo, rat. As to conditions: MP 5 mg/Kg s.c. 1 month, MP alone or MP+219/C002 250 mg/kg, 219/F005 100 mg/kg, 219/F005-F 50 mg/kg. The procedure:
50 adult male SD rats (260±20 g, 8-10 months) were divided into 5 groups. 5 mg/Kg methylprednisolone was administered subcutaneously for 1 month to induce osteoporosis. 219/C002 (250 mg/kg), 219/F005 (100 mg/Kg), 219/F005-F (50 mg/kg) treatment were given to check the efficacy of the extract and its different fraction along with methylprednisolone (n=10/group). After 1 month all rats were sacrificed and bones were collected for further experiment.
A high-resolution X-ray micro-computed tomographic (μCT) for two-dimensional (2D) and three-dimensional (3D) assessment of bones (excised bones) were carried out using a Sky Scan 1076 μCT scanner (SkyScan, Ltd, Kartuizersweg, Kontich, Belgium). Briefly, after scanning bone samples at a nominal resolution (pixels) of 9 μm, cross-sectional reconstruction was made using SkyScanNrecon software based on a modified Feldkamp algorithm. To analyze trabecular bone, region of interest was drawn on a total of 100 slices in the region of secondary spongiosa situated 1.5 mm away from the distal border of growth plate (GP) excluding primary spongiosa and cortical bone. Quantification was done by employing Batman software encumbered with trabecular (3D) and cortical (2D) bone programs. Using μCT scans, trabecular bone mineral density (BMD) of femurs was determined from the volume of interest made for cortical and trabecular region, respectively. For calibration, hydroxyl apatite phantom rods of 4 mm of diameter with known BMD (0.25 g/cm^3 and 0.75 g/cm^3) were employed.
Animals were kept in metabolic cages without food but with respective treatment and ad libitum water. Fasting serum samples were collected after 24 h. Serumprocollagen type I N-terminal propeptide (PINP) levels were determined by ELISA (MyBioSource, USA.), following the manufacturer's protocols.
Bone mechanical strength was examined by three-point bending of femur diaphysis with bone strength tester TK 252C (Muromachi Kikai Co. Ltd, Tokyo, Japan).

Take `O=c1cc(-c2ccc(O)cc2)oc2cc(O)cc(O)c12` [219/K007, Apigenin]: in series [1] (6 weeks treatment), the “femur cortical strength (three-point bending)” value was “partially improve cortical strength”. For the same compound, the osteogenic concentration result in series [2] is reported as “(1 μM)”. The RunX2 expression result in series [3] is “promoted”. In series [4], the “oral absorption: detection in plasma” value is “detected in extract and in extract-treated rat plasma but not in blank rat plasma”. Besides, the Col1 expression entry in series [5] was “promoted”.

Turning to `O=c1cc(-c2ccc(O)cc2)oc2cc(O)ccc12` [219/K009, 7,4′-dihydroxy flavone], the osteogenic concentration entry in series [2] is “(10 nM)”. In addition, the RunX2 expression entry in series [3] was “promoted”. Further, the “oral absorption: detection in plasma” value in series [4] is “detected in extract and in extract-treated rat plasma but not in blank rat plasma”. In addition, in series [5], the Col1 expression entry is “promoted”.

Regarding `O=c1cc(-c2ccc(O)c(O)c2)oc2cc(O)cc(O)c12` [219/K010, Luteolin], the osteogenic concentration result in series [2] is given as “(1 nM)”.

Turning to `O=c1cc(-c2ccc(O)c(O)c2)oc2cc(O)ccc12` [219/K011, 7,3′,4′-trihydroxy-flavone], the osteogenic concentration result in series [2] is “(10 nM)”. In series [6], the BMP2 expression result is “promoted BMP2 expression”. Moreover, the RunX2 expression entry in series [3] was “promoted”. Moreover, in series [5], the Col1 expression entry is given as “promoted”.

As for `Cc1cc(O)c2c(c1)C(=O)c1cc(O)cc(O)c1C2=O` [219/K012, Emodin], the osteogenic concentration entry in series [2] is “(10 nM)”.

For the compound `O=c1cc(-c2ccc(O)cc2)oc2cc(O)c([C@@H]3O[C@H](CO)[C@@H](O)[C@H](O)[C@H]3O)c(O)c12` [219/K017, Isovitexin], in series [1] (5 mg/Kg, 6 weeks), the “femur trabecular microarchitecture (BMD, BV/TV)” value is “completely restored femur trabecular microarchitecture”. Further, in series [1] (6 weeks treatment), the “bone strength of femur, higher than with 219/K007 (apigenin) treatment” value is on record as 80%; the “femur cortical strength (three-point bending)” value is on record as “restored femur cortical strength”; the “total bone volume of femur, higher than with 219/K007 (apigenin) treatment” value is 72%. In series [2], the osteogenic concentration entry is listed as “(1 μM)”. Moreover, in series [6], the BMP2 expression result is “promoted BMP2 expression”. The RunX2 expression entry in series [3] is “promoted”. In addition, the “oral absorption: detection in plasma” value in series [4] was “detected in extract and in extract-treated rat plasma but not in blank rat plasma”. In addition, in series [5], the Col1 expression result is on record as “promoted”.

In the case of `C[C@H]1C[C@@H]2[C@H]([C@@H](O)C[C@@]3(C)[C@H]2CC[C@]3(O)C(=O)CO)[C@@]2(C)C=CC(=O)C=C12` [MP, Methylprednisolone], in series [7] (mean, n=10), the BMD is on record as 0.281 gm-HA/cm^3, the BV/TV came out at 18.33% and the “Serum PINP” value came out at 50.17 ng/mL. In series [7] (femur three-point bending), this compound registered an Energy of 75.67 mJ, a Max power of 82.17 N and a Stiffness of 108.17 N/mm.

As for `O=C(O)c1ccccn1` [Picolonic acid], the “oral absorption: detection in plasma” value in series [4] was “detected in extract and in extract-treated rat plasma but not in blank rat plasma”.
